Test results as given in US6372693B1, “Substituted 2-(3-alkenyl-benzoyl)-cyclohexane-1,3-diones” (BASF Aktiengesellschaft, priority 1997, dated 2002).

Experiments:
Assay in all cases: greenhouse herbicidal test, post-emergence treatment
Assay type in all cases: in vivo
Chenopodium album = settings: 0.5 or 0.25 kg/ha a.s., Chenopodium album (lambsquarters)
Method: (§1) The culture containers used were plastic flowerpots containing loamy sand with approximately 3.0% of humus as substrate. The seeds of the test plants were sown separately for each species.
(§2) For the purposes of post-emergence treatment, the test plants were grown to a plant height of from 3 to 15 cm, depending on the plant habit, and only then treated with the active ingredients which had been suspended or emulsified in water. To this end, the test plants were either sown directly and grown in the same containers, or they were first grown separately as seedlings and transplanted into the test containers a few days prior to treatment. The rate of application for the post-emergence treatment was 0.5 or 0.25 kg/ha a.s.
(§3) Depending on the species, the plants were kept at from 10-25° C. and 20-35° C., respectively. The test period extended over 2 to 4 weeks. During this time, the plants were tended, and their response to the individual treatments was evaluated.
(§4) Evaluation was carried out using a scale of from 0 to 100. 100 means no emergence of the plants, or complete destruction of at least the aerial parts, and 0 means no damage or normal course of growth.
(§5) The plants used in the greenhouse experiments belonged to the following species: […]

Polygonum persicaria = settings: 0.5 or 0.25 kg/ha a.s., Polygonum persicaria (ladysthumb)
Method: as §1, §2, §3, §4, §5

Sinapis alba = settings: 0.5 or 0.25 kg/ha a.s., Sinapis alba (white mustard)
Method: as §1, §2, §3, §4, §5

Solanum nigrum = settings: 0.5 or 0.25 kg/ha a.s., Solanum nigrum (black nightshade)
Method: as §1, §2, §3, §4, §5

Measured: herbicidal action (control of the weed)

CC=Cc1c(Cl)ccc(C(=O)C2C(=O)CCCC2=O)c1Cl [Compound 2.1, 2-[2′,4′-Dichloro-3′-(prop-1″-en-1″-yl)benzoyl]-1,3-cyclo-hexanedione]
very good control: all assays above
